According to patent US5496947A, “Quinolone carboxylic acid derivatives” (Dong Wha Pharmaceutical Industrial Co., Ltd., priority 1994, dated 1996):
Where two headings read alike, the source gives them in different places.

Key:
Type in all cases: cell-based
[1] = test system: Acinetobacter calcoaceticus; assay: MIC, 2-fold dilution method in micro-well plate, A. calcoaceticus
Description: (§1) The in vitro antibiotic activity of the present compound is measured using 2-fold dilution method with a micro-well plate and the bacteria are inoculated in about 10^5 cfu/ml after an overnight culture in a brain-heart infusion (BHI) broth at 37° C. The novel compounds of the present invention are converted to a hydrochloride salt form and diluted with a sterilized distilled water to make 10 mg/ml aqueous solution. After the mother liquor wherein the compound is diluted to the two-fold concentration has been obtained in the form of an aqueous solution, the respective 0.1 ml of diluted liquor is transferred to a well and is inoculated with 0.1 ml of the culture fluid to make about (10^5 -10^6)/2 cfu/ml.
(§2) After cultivation at 37° C., the minimum inhibitory concentration (MIC) is measured and recorded in Table I-V.
Table I-V show the minimum inhibitory concentrations (MIC). […]

[2] = test system: Citrobacter freundii ATCC 8090; assay: MIC, 2-fold dilution method in micro-well plate, C. freundii
Description: as §1, §2
(§3) Table I-V show the minimum inhibitory concentrations (MIC).
Citrobacter freundii ATCC 8090

[3] = test system: Enterobacter aerogenes ATCC 13048; assay: MIC, 2-fold dilution method in micro-well plate, E. aerogenes; details: Klebsiella aerogenes
Description: as §1, §2, §3
Enterobacter aerogenes ATCC 13048

[4] = test system: Enterobacter cloacae; assay: MIC, 2-fold dilution method in micro-well plate, E. cloacae; details: read-out: Minimum Inhibitory Concentration
Description: as §1, §2, §3
Enterobacter cloacae ATCC 23355

[5] = test system: Escherichia coli ATCC 25922; assay: MIC, 2-fold dilution method in micro-well plate, E. coli
Description: as §1, §2, §3
Escherichia coli ATCC 25922

[6] = test system: Haemophilus influenza ATCC 35056; assay: MIC, 2-fold dilution method in micro-well plate, H. influenzae; details: H. influenzae ATCC35056, 37° C.; read-out: Minimum Inhibitory Concentration
Description: as §1, §2, §3
Haemophilus influenza ATCC 35056

[7] = test system: Klebsiella pneumoniae ATCC 13883; assay: MIC, 2-fold dilution method in micro-well plate, K. pneumoniae
Description: as §1, §2, §3
Klebsiella pneumoniae ATCC 13883

[8] = test system: Proteus vulgaris ATCC 13315; assay: MIC, 2-fold dilution method in micro-well plate, P. vulgaris
Description: as §1, §2, §3
Proteus vulgaris ATCC 13315

[9] = test system: Pseudomonas aeruginosa ATCC 27853; assay: MIC, 2-fold dilution method in micro-well plate, P. aeruginosa
Description: as §1, §2, §3
Pseudomonas aeruginosa ATCC 27853

[10] = test system: Salmonella typhimurium ATCC 14028; assay: MIC, 2-fold dilution method in micro-well plate, S. typhimurium; details: Salmonella enterica, read-out: Minimum Inhibitory Concentration
Description: as §1, §2, §3
Salmonella typhimurium ATCC 14028

[11] = test system: Shigella flexneri ATCC 12022; assay: MIC, 2-fold dilution method in micro-well plate, S. flexneri; details: S. flexneri ATCC12022, 37° C., read-out: Minimum Inhibitory Concentration
Description: as §1, §2, §3
Shigella flexneri ATCC 12022

[12] = test system: Shigella sonnei ATCC 25931; assay: MIC, 2-fold dilution method in micro-well plate, S. sonnei; details: S. sonnei ATCC25931, 37° C., read-out: Minimum Inhibitory Concentration
Description: as §1, §2, §3
Shigella sonnei ATCC 25931

[13] = test system: Serratia marcescens ATCC 8100; assay: MIC, 2-fold dilution method in micro-well plate, S. marcescens
Description: as §1, §2, §3
Serratia marcescens ATCC 8100

[14] = test system: Streptococcus faecalis ATCC 19433; assay: MIC, 2-fold dilution method in micro-well plate, S. faecalis ATCC 19433; details: Enterococcus faecalis; S. faecalis ATCC19433, 37° C.; read-out: Minimum Inhibitory Concentration
Description: as §1, §2, §3
Streptococcus faecalis ATCC 19433

[15] = test system: Streptococcus faecalis ATCC 29212; assay: MIC, 2-fold dilution method in micro-well plate, S. faecalis ATCC 29212; details: Enterococcus faecalis; S. faecalis ATCC29212, 37° C.; read-out: Minimum Inhibitory Concentration
Description: as §1, §2, §3
Streptococcus faecalis ATCC 29212

[16] = test system: Streptococcus pneumoniae ATCC 6303; assay: MIC, 2-fold dilution method in micro-well plate, S. pneumoniae; details: S. pneuinoniae ATCC6303, 37° C., read-out: Minimum Inhibitory Concentration
Description: as §1, §2, §3
Streptococcus pneumoniae ATCC 6303

[17] = test system: Streptococcus pyrogens ATCC 19615; assay: MIC, 2-fold dilution method in micro-well plate, S. pyrogens; details: S. pyrogenes ATCC19615, 37° C., read-out: Minimum Inhibitory Concentration
Description: as §1, §2, §3
Streptococcus pyrogens ATCC 19615

[18] = A. calcoaceticus ATCC8090 (as in tables), 37° C., read-out: Minimum Inhibitory Concentration
[19] = ATCC8090, read-out: Minimum Inhibitory Concentration
[20] = ATCC13048, read-out: Minimum Inhibitory Concentration
[21] = ATCC25922, read-out: Minimum Inhibitory Concentration
[22] = ATCC13883, read-out: Minimum Inhibitory Concentration
[23] = ATCC13315, read-out: Minimum Inhibitory Concentration
[24] = ATCC27853, read-out: Minimum Inhibitory Concentration
[25] = ATCC8100, read-out: Minimum Inhibitory Concentration
[26] = C. freundii ATCC8090, 37° C., read-out: Minimum Inhibitory Concentration
[27] = E. aerogenes ATCC13048, 37° C., read-out: Minimum Inhibitory Concentration
[28] = E. coli ATCC25922, 37° C., read-out: Minimum Inhibitory Concentration
[29] = S. marcescens ATCC8100, 37° C., read-out: Minimum Inhibitory Concentration
[30] = P. vulgaris ATCC13315, 37° C., read-out: Minimum Inhibitory Concentration
[31] = P. aerugirnosa ATCC27853, 37° C., read-out: Minimum Inhibitory Concentration
[32] = E. cloacae ATCC23355 (as in tables), 37° C.
[33] = K. pneumoniae ATCC13883, 37° C., read-out: Minimum Inhibitory Concentration
[34] = S. typhisurium ATCC14028, 37° C.

| Compound | MIC [1, 18] [µg/mL] | MIC [2, 19] [µg/mL] | MIC [3, 20] [µg/mL] | MIC [4] [µg/mL] | MIC [5, 21] [µg/mL] | MIC [6] [µg/mL] | MIC [7, 22] [µg/mL] | MIC [8, 23] [µg/mL] | MIC [10] [µg/mL] | MIC [11] [µg/mL] | MIC [12] [µg/mL] | MIC [13, 25] [µg/mL] | MIC [14] [µg/mL] | MIC [15] [µg/mL] | MIC [16] [µg/mL] | MIC [17] [µg/mL] | MIC [5, 28] [µg/mL] | MIC [13, 29] [µg/mL] | MIC [8, 30] [µg/mL] | MIC [9, 31] [µg/mL] | also measured |
| --- | --- | --- | --- | --- | --- | --- | --- | --- | --- | --- | --- | --- | --- | --- | --- | --- | --- | --- | --- | --- | --- |
| CC1CN(c2nc3c(cc2F)c(=O)c(C(=O)O)cn3-c2ccncc2F)CCN1.Cl (stereo not drawn) [Example 9, 1-(3-fluoro-4-pyridyl)-6-fluoro-7-(3-methyl-1-piperazinyl)-1,4-dihydro-4-oxo-1,8-naphthyridine-3-carboxylic acid hydrochloride] | 10 | 1.25 | 0.625 | 0.625 | 0.625 | 1.25 | 1.25 | 0.625 | 0.625 | 0.625 | 0.625 | 1.25 | 2.5 | 2.5 | 5 | 10 |  |  |  |  | MIC [9, 24]: 0.625 µg/mL |
| CC1CN(c2nc3c(cc2F)c(=O)c(C(=O)O)cn3-c2ccncc2F)CC(C)N1.Cl (stereo not drawn) [Example 10, 1-(3-fluoro-4-pyridyl)-6-fluoro-7-(3,5-dimethyl-1-piperazinyl)-1,4-dihydro-4-oxo-1,8-naphthyridine-3-carboxylic acid hydrochloride] | 10 |  |  | 0.625 |  | 0.625 | 0.625 | 0.625 | 0.625 | 0.625 | 0.625 |  | 2.5 | 5 | 5 | 10 | 1.25 | 2.5 |  |  | MIC [2, 26]: 1.25 µg/mL; MIC [3, 27]: 1.25 µg/mL; MIC [9, 24]: 0.25 µg/mL |
| Cl.N[C@H]1CCN(c2nc3c(cc2F)c(=O)c(C(=O)O)cn3-c2ccncc2F)C1 [Example 11, 1-(3-fluoro-4-pyridyl)-6-fluoro-7-[(3S)-3-amino-1-pyrrolidinyl]-1,4-dihydro-4-oxo-1,8-naphthyridine-3-carboxylic acid hydrochloride] | 1.25 | 0.156 | 0.156 | 0.156 |  | 0.156 | 0.156 |  | 0.156 | 0.156 | 0.01 | 0.156 | 0.625 | 0.625 | 1.25 | 2.5 | 0.078 |  | 0.313 |  | MIC [9, 24]: 0.156 µg/mL |
| Cl.O=C(O)c1cn(-c2ccc(F)cn2)c2nc(N3CCNCC3)c(F)cc2c1=O [Example 12, 1-(5-fluoro-2-pyridyl)-6-fluoro-7-(1-piperazinyl)-1,4-dihydro-4-oxo-1,8-naphthyridine-3-carboxylic acid hydrochloride] |  | 1.25 | 0.625 | 0.625 | 0.313 | 1.25 | 0.625 | 0.625 | 1.25 | 0.625 | 0.313 | 1.25 | 5 | 5 | 5 | 5 |  |  |  | 1.25 | MIC [1, 19]: 0.625 µg/mL |
| CC1CN(c2nc3c(cc2F)c(=O)c(C(=O)O)cn3-c2ccc(F)cn2)CC(C)N1.Cl (stereo not drawn) [Example 15, 1-(5-fluoro-2-pyridyl)-6-fluoro-7-(3,5-dimethyl-1-piperazinyl)-1,4-dihydro-4-oxo-1,8-naphthyridine-3-carboxylic acid hydrochloride] | 0.625 | 0.313 |  |  |  | 2.5 |  |  |  | 0.313 | 0.078 |  | 5 | 5 | 10 | 10 | 0.625 | 1.25 | 1.25 | 1.25 | MIC [3, 27]: 1.25 µg/mL; MIC [4, 32]: 0.625 µg/mL; MIC [7, 33]: 0.625 µg/mL; MIC [10, 34]: 1.25 µg/mL |
| Cl.NC1CCN(c2nc3c(cc2F)c(=O)c(C(=O)O)cn3-c2ccc(F)cn2)C1 (stereo not drawn) [Example 16, 1-(5-fluoro-2-pyridyl)-6-fluoro-7-(3-amino-1-pyrrolidinyl)-1,4-dihydro-4-oxo-1,8-naphthyridine-3-carboxylic acid hydrochloride] | 0.156 |  |  |  |  | 0.078 |  |  |  | 0.039 | 0.02 |  | 1.25 | 0.625 | 1.25 | 2.5 | 0.078 | 0.078 | 0.078 | 0.156 | MIC [2, 26]: 0.078 µg/mL; MIC [3, 27]: 0.313 µg/mL; MIC [4, 32]: 0.156 µg/mL; MIC [7, 33]: 0.078 µg/mL; MIC [10, 34]: 0.313 µg/mL |
| Cl.O=C(O)c1cn(-c2ccc(F)cn2)c2cc(N3CCNCC3)c(F)cc2c1=O [Example 17, 1-(5-fluoro-2-pyridyl)-6-fluoro-7-(1-piperazinyl)-1,4-dihydro-4-oxoquinoline-3-carboxylic acid hydrochloride] | 2.5 | 1.25 | 1.25 | 1.25 |  | 1.25 | 0.625 | 0.625 | 1.25 | 0.625 | 0.625 |  | 5 | 2.5 | 5 | 5 | 0.313 | 2.5 |  | 1.25 |  |
| CC1CN(c2cc3c(cc2F)c(=O)c(C(=O)O)cn3-c2ccc(F)cn2)CC(C)N1.Cl (stereo not drawn) [Example 20, 1-(5-fluoro-2-pyridyl)-6-fluoro-7-(3,5-dimethyl-1-piperazinyl)-1,4-dihydro-4-oxoquinoline-3-carboxylic acid hydrochloride] |  | 0.625 | 1.25 | 0.625 | 0.625 | 1.25 | 0.625 | 0.625 | 1.25 | 0.625 | 0.313 | 0.625 | 5 | 2.5 | 5 | 10 |  |  |  | 1.25 | MIC [1, 19]: 1.25 µg/mL |
| Cl.NC1CCN(c2cc3c(cc2F)c(=O)c(C(=O)O)cn3-c2ccc(F)cn2)C1 (stereo not drawn) [Example 21, 1-(5-fluoro-2-pyridyl)-6-fluoro-7-(3-amino-1-pyrrolidinyl)-1,4-dihydro-4-oxoquinoline-3-carboxylic acid hydrochloride] |  |  | 0.156 | 0.156 |  | 0.078 |  |  | 0.156 | 0.078 | 0.02 |  | 1.25 | 1.25 | 2.5 | 2.5 | 0.078 | 0.078 | 0.078 | 0.313 | MIC [1, 19]: 0.156 µg/mL; MIC [2, 26]: 0.078 µg/mL; MIC [7, 33]: 0.078 µg/mL |
